Source: paper PMC12951562, “SH2scan: Mapping SH2 Domain-Ligand Binding Selectivity for Inhibitors and Degraders” (Journal of Medicinal Chemistry, 2026)
Where two headings read alike, the source gives them in different places.

Columns and labels:
Test in all cases: biochemical
Assay type in all cases: binding
APS (SH2B2) = target: T1, APS (SH2B2) (Homo sapiens, UniProt O14492); settings: read-out: percent of DMSO vehicle control; for remaining activity at 10 µM: primary screen
T1 construct: the DNA-tagged SH2 domain concentrations used in this study were <0.1 nM; made in house; host or cells: HEK293 (transient transfection; unpurified extract)
T1 sequence (O14492 417-515 limits assumed): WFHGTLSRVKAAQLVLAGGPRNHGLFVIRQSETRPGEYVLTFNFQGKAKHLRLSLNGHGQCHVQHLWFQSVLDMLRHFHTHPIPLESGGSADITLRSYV

CRK = target: T2, CRK (Homo sapiens, UniProt P46108); settings: for remaining activity at 10 µM: primary screen; for remaining activity at 10 µM / percent of DMSO vehicle control at 10 µM: read-out: percent of DMSO vehicle control
T2 construct: the DNA-tagged SH2 domain concentrations used in this study were <0.1 nM; made in house; host or cells: HEK293 (transient transfection; unpurified extract)
T2 sequence (P46108 13-118 limits assumed): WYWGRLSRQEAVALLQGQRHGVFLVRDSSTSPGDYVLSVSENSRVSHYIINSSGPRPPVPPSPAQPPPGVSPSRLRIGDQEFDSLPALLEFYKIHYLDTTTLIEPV

FRK = target: T3, FRK (Homo sapiens, UniProt P42685); settings: read-out: percent of DMSO vehicle control; for remaining activity at 10 µM: primary screen
T3 construct: the DNA-tagged SH2 domain concentrations used in this study were <0.1 nM; made in house; host or cells: HEK293 (transient transfection; unpurified extract)
T3 sequence (P42685 116-208 limits assumed): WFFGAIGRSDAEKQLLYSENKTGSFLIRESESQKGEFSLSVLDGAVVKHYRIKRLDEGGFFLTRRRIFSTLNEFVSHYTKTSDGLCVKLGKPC

PLCG1(SH2dom.C-term.) = target: T4, PLCG1(SH2dom.C-term.) (Homo sapiens, UniProt P19174); settings: for remaining activity at 10 µM: read-out: percent of DMSO vehicle control; for Kd: dose-response, read-out: KD
T4 construct: SH2dom.C-term. denotes SH2 domain closest to C-terminus of protein; made in house; host or cells: HEK293 (transient transfection, unpurified extract)
T4 sequence (P19174 668-756 limits assumed): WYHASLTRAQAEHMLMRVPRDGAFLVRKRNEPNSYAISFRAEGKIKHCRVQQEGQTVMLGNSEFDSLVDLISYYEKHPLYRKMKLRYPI

PTPN6(SH2dom.N-term.) = target: T5, PTPN6(SH2dom.N-term.) (Homo sapiens, UniProt P29350); settings: read-out: percent of DMSO vehicle control
T5 construct: SH2dom.N-term. denotes SH2 domain closest to N-terminus of protein; made in house; host or cells: HEK293 (transient transfection, unpurified extract)
T5 sequence (P29350 4-100 limits assumed): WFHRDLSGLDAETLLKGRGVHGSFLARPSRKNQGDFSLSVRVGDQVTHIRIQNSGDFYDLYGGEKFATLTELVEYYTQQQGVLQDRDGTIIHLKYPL

RASA1(SH2dom.N-term.) = target: T6, RASA1(SH2dom.N-term.) (Homo sapiens, UniProt P20936); settings: read-out: percent of DMSO vehicle control
T6 construct: SH2dom.N-term. denotes SH2 domain closest to N-terminus of protein; made in house; host or cells: HEK293 (transient transfection), unpurified extract
T6 sequence (P20936 181-272 limits assumed): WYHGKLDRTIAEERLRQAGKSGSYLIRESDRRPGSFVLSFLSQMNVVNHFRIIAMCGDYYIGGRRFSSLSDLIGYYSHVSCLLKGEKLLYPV

SH3BP2 = target: T7, SH3BP2 (Homo sapiens, UniProt P78314); settings: read-out: percent of DMSO vehicle control
T7 construct: made in house; host or cells: HEK293 (transient transfection), unpurified extract
T7 sequence (P78314 1-561): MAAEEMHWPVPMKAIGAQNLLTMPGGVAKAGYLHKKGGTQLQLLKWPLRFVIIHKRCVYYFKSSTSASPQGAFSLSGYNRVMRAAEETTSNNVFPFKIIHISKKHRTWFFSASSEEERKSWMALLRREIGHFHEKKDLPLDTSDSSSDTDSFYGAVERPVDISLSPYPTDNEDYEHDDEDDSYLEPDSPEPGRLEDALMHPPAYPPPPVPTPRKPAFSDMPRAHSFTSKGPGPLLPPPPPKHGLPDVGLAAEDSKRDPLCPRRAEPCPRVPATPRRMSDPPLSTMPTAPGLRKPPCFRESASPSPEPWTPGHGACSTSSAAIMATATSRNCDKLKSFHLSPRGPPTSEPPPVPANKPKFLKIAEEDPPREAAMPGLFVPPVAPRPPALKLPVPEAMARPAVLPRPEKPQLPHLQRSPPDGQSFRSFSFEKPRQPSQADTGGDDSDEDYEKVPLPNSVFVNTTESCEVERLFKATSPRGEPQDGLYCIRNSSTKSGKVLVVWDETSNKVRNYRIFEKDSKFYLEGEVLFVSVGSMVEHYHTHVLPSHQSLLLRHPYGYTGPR

SLAP2 = target: T8, SLAP2 (Homo sapiens, UniProt Q9H6Q3); settings: read-out: percent of DMSO vehicle control
T8 construct: made in house; host or cells: HEK293 (transient transfection), unpurified extract
T8 sequence (Q9H6Q3 1-261): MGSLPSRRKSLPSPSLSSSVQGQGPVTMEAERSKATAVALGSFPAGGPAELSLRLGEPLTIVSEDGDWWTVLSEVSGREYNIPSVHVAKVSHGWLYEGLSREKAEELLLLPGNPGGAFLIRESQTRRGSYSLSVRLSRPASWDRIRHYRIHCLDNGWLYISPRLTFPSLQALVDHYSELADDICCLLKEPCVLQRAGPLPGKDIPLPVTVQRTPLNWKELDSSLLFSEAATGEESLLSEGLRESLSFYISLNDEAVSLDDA

SOCS6 = target: T9, SOCS6 (Homo sapiens, UniProt O14544); settings: read-out: percent of DMSO vehicle control
T9 construct: made in house; host or cells: HEK293 (transient transfection), unpurified extract
T9 sequence (O14544 1-535): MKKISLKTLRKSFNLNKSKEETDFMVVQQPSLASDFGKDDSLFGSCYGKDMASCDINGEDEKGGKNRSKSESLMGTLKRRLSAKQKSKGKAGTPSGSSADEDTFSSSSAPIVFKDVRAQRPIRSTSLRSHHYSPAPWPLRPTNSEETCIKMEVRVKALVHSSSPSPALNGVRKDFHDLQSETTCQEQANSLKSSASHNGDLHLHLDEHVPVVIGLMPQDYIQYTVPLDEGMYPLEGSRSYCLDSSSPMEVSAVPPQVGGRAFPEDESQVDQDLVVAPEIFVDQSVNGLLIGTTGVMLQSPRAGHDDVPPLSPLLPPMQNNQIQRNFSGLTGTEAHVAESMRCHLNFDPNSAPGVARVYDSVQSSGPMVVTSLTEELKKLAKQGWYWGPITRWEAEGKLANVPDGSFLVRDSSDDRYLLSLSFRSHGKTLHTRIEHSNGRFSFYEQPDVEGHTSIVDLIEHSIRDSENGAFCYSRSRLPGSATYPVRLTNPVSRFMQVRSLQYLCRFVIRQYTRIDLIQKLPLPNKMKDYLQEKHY

TNS1 = target: T10, TNS1 (Homo sapiens, UniProt Q9HBL0); settings: read-out: percent of DMSO vehicle control; for remaining activity at 10 µM: primary screen
T10 construct: made in house; host or cells: HEK293 (transient transfection), unpurified extract
T10 sequence (Q9HBL0 whole entry): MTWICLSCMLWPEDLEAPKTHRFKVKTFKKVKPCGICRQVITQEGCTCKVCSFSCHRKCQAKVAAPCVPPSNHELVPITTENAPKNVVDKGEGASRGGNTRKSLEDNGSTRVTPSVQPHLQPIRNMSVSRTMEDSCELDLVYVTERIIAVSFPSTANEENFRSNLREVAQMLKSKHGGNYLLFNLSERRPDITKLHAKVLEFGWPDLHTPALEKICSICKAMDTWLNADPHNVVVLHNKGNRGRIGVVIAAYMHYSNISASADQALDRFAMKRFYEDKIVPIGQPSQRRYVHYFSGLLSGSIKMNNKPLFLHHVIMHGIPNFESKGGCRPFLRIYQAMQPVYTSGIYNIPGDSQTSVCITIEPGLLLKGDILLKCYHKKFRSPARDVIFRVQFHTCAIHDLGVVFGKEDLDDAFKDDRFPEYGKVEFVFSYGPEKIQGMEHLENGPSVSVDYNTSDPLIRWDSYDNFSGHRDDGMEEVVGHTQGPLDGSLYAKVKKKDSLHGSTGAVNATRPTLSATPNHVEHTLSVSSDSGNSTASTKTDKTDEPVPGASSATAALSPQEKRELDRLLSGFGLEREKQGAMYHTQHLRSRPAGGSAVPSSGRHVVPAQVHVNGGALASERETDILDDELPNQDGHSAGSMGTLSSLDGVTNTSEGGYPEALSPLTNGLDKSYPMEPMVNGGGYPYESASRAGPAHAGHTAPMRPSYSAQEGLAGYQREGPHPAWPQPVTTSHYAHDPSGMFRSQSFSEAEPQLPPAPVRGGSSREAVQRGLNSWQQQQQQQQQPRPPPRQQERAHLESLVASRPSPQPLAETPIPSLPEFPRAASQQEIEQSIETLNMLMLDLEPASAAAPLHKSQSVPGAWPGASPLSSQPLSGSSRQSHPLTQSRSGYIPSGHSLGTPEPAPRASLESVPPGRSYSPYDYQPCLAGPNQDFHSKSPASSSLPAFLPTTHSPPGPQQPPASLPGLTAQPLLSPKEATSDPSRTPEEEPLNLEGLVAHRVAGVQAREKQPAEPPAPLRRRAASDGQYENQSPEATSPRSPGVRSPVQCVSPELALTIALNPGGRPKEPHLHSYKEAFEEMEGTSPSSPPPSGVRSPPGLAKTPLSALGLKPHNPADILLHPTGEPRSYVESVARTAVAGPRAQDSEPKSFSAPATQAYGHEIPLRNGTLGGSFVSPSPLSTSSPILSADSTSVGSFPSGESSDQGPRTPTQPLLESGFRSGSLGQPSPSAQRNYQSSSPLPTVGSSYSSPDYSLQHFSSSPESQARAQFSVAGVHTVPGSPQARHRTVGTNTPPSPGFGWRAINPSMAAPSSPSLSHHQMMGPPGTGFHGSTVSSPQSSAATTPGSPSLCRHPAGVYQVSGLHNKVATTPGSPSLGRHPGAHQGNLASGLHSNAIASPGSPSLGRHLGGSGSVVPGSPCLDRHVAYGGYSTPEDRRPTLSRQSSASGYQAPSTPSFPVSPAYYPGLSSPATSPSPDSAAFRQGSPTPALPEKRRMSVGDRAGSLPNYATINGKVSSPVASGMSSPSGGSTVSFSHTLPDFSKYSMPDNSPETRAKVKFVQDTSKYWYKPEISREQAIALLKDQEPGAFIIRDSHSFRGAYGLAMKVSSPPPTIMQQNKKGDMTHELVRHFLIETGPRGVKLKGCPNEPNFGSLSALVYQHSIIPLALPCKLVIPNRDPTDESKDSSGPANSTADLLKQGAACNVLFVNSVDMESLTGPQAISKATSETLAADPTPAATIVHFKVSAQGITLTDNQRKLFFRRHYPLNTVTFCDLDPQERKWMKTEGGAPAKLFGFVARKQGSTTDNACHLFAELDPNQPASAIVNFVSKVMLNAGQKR

TXK = target: T11, TXK (Homo sapiens, UniProt P42681); settings: read-out: percent of DMSO vehicle control
T11 construct: made in house; host or cells: HEK293 (transient transfection), unpurified extract
T11 sequence (P42681 1-527): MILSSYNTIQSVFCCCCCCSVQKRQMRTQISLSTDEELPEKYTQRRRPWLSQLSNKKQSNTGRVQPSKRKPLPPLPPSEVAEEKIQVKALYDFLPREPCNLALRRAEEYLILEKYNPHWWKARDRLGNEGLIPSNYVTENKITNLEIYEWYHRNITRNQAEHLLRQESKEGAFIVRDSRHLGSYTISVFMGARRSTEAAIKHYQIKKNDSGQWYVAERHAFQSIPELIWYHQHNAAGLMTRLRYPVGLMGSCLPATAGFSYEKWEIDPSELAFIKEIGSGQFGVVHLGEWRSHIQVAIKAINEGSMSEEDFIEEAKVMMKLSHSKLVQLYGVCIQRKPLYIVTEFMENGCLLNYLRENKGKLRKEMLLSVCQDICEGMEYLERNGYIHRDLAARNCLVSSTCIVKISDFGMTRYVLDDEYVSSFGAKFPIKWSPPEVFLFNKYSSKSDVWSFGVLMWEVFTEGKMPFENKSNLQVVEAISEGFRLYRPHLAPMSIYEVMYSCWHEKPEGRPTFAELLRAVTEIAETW

Row | Structure (SMILES) | remaining activity at 10 µM (APS (SH2B2)) | remaining activity at 10 µM (CRK) | remaining activity at 10 µM (FRK) | remaining activity at 10 µM (PLCG1(SH2dom.C-term.); primary screen, 10 μM) | remaining activity at 10 µM (PTPN6(SH2dom.N-term.); primary screen, 10 μM) | remaining activity at 10 µM (RASA1(SH2dom.N-term.); primary screen, 10 μM) | remaining activity at 10 µM (SH3BP2; primary screen, 10 μM) | remaining activity at 10 µM (SLAP2; primary screen, 10 μM) | remaining activity at 10 µM (SOCS6; primary screen, 10 μM) | remaining activity at 10 µM (TNS1) | remaining activity at 10 µM (TXK; primary screen, 10 μM) | percent of DMSO vehicle control at 10 µM (APS (SH2B2)) | percent of DMSO vehicle control at 10 µM (CRK) | percent of DMSO vehicle control at 10 µM (FRK) | remaining activity at 10 µM (PLCG1(SH2dom.C-term.)) | remaining activity at 10 µM (PTPN6(SH2dom.N-term.)) | remaining activity at 10 µM (RASA1(SH2dom.N-term.)) | remaining activity at 10 µM (SH3BP2) | remaining activity at 10 µM (SLAP2) | remaining activity at 10 µM (SOCS6) | other results
1 | O=C(CCl)Nc1cccc(CNC(=O)[C@H](Cc2ccc(OP(=O)(O)O)cc2)NC(=O)Cc2ccc(F)cc2)c1 [MN551] | 94.2 ± 3.2% | 72.1 ± 0.5% | 69 ± 8.3% | 64.1 ± 4.5% | 102% | 94.2 ± 3% | 109% | 81.6 ± 2.1% | 65.2 ± 0.1% | 134% | 89.1% |  |  |  |  |  |  |  |  |  | 
2 | NC(=O)CC[C@H](NC(=O)[C@@H]1CC[C@@H]2CCN(C(=O)CCCCCC#Cc3cccc4c3CN(C3CCC(=O)NC3=O)C4=O)C[C@H](NC(=O)c3cc4cc(C(F)(F)P(=O)(O)O)ccc4[nH]3)C(=O)N21)C(=O)NC(c1ccccc1)c1ccccc1 (stereo partly shown) [SD-36] |  |  |  |  |  |  |  |  |  |  |  | 140 ± 6.1% | 77 ± 13.9% | 155 ± 4.5% | 85.7 ± 0.8% | 87.3 ± 4.7% | 64.7 ± 0.3% | 91.5 ± 19.4% | 95.7 ± 9.9% | 57.2 ± 3.4% | percent of DMSO vehicle control at 10 µM (TNS1): 112.9 ± 1%; remaining activity at 10 µM (TXK): 101 ± 9.7%
3 | CC(=O)N1CC[C@H]2CC[C@@H](C(=O)N[C@@H](CCC(N)=O)C(=O)NC(c3ccccc3)c3ccccc3)N2C(=O)[C@@H](NC(=O)c2cc3cc(C(F)(F)P(=O)(O)O)ccc3[nH]2)C1 [SI-109] |  |  |  |  |  |  |  |  |  |  |  | 130% | 119% | 151% | 98 ± 1.4% | 123% | 123% | 131% | 121% | 91.9 ± 7.4% | percent of DMSO vehicle control at 10 µM (TNS1): 152%; remaining activity at 10 µM (TXK): 118%
4 | C/C(=C\C(=O)N[C@H](C(=O)N1CCC[C@H]1C(=O)N(c1ccccc1)c1ccc(I)cc1)C(C)(C)C)c1ccc(OP(=O)(O)O)cc1 [STAT6-IN-1] | 45.3 ± 5.2% | 34.5 ± 1.8% | 38.3 ± 5.9% | 1.5 ± 2.1% | 69.7% | 50.2 ± 0.4% | 56.5 ± 0.3% | 55.8 ± 2.8% | 44.1 ± 2.1% | 87.6 ± 10% | 87.1 ± 5.9% |  |  |  |  |  |  |  |  |  | Kd (CRK; dose-response, read-out: KD): 2.004 ± 0.0059 µM; Kd (PLCG1(SH2dom.C-term.)): 2.05 ± 0.21 µM
5 | CC(C)(C)[C@H](NC(=O)/C=C/c1ccc(OP(=O)(O)O)cc1)C(=O)N1CCC[C@H]1C(=O)N(c1ccccc1)c1ccc(I)cc1 [STAT6-IN-3] | 66.4 ± 17.9% | 80.4 ± 9.5% | 59.9 ± 42.5% | 24.7 ± 7% | 77.4 ± 15.8% | 81.7 ± 8.5% | 92.8 ± 2.7% | 92.1 ± 16.6% | 90.2 ± 12.1% | 88.4 ± 24.5% | 85.4 ± 12.9% |  |  |  |  |  |  |  |  |  | Kd (PLCG1(SH2dom.C-term.)): 3.8 ± 0.28 µM
